Experimental data: patent US20080171710A1, “The Redox/Fyn/c-Cbl Pathway” (priority 2007, published 2008)

What was measured:
PDGFRα = assay: PDGFR ubiquitylation (immunoprecipitation assay); assay type: cell-based, rat; settings: MeHg exposure
Protocol: For the co-immunoprecipitation assay, anti-c-Cbl monoclonal antibody (BD PharMingen) or anti-PDGFRα polyclonal antibody (Santa Cruz Biotechnology) was added to the pre-cleared cell lysates (250 μg of total protein), and the mixtures were gently rocked for 2 h at 4° C. A total of 30 μl of protein A/G agarose was then added to the mixture followed by rotating at 4° C. overnight. The protein A/G agarose was then spun down and washed thoroughly three times. The precipitates were resolved on an 8% SDS-PAGE gel and then were subjected to Western blot analysis using an anti-p-Tyr (for c-Cbl phosphorylation assay) or ubiquitin (for PDGFR ubiquitylation assay) antibody (Santa Cruz Biotechnology).

PDGFRα mRNA = assay: PDGFRα mRNA, real-time RT-PCR; assay type: cell-based, rat; settings: MeHg exposure
Protocol: Total RNA was isolated using TRIZOL reagent (Inviirogen, Carlsbad, Calif., United States) according to the manufacturer's protocol. A total of 1 μg of RNA was subjected to reverse transcription using Superscript II (In vitrogen). The reactions were incubated at 42° C. for 50 min. The FAM-iabeled probe mixes for rat PDGFRα and Fyn, and the VIC-labeled GAPDH probe mix were purchased from Applied Biosystems (Foster City Calif., United States). For multiplex real-time PCR, reactions each containing 5 μl of 10-fold diluted reverse transcription product, 1 μl of interest gene probe mix. 1 μl of GAPDH probe mix, and 10 μl of TaqMan Universal PCR Master Mix were performed on an iCycler iQ multicolor real-time PCR system (Bio-Rad, Hercules, Calif., United States) and cycling condition was 50° C. for 2 min and 95° C. for 10 min, followed by 40 cycles of 95° C. for 15 sec and 60° C. for 1 min. Each sample was run in triplicate. Data were analyzed, by iCycler iQ software (Bio-Rad).

O-2A/OPCs [1] = assay: In vivo BrdU incorporation assay with Olig2 co-labeling, corpus callosum; parameters: species or system mice; settings: low-level MeHg in maternal drinking water, P14
Protocol: To analyze DNA synthesis in vivo, mice were injected with a single dose of 5-BrdU (50 mg/kg body weight), dissolved in 0.9% NaCl, filtered (0.2 μm), and applied intraperitoneally 2 h prior to perfusion. After removal and sectioning of brains, 40-μm free-floating sections were incubated for 2 h in 50% forraamide/2×SSC (0.3 M NaCl and 0.03 M sodium citrate) at 65° C., rinsed twice for 5 min each in 2×SSC, incubated for 30 min in 2N HCl at 37° C., and rinsed for 10 min in 0.1 M boric acid (pH 8.5) at room temperature. Several rinses in TBS were followed by incubation in TBS/0.1% Triton X-100/3% donkey serum (TBS-plus) for 30 min. Sections were then incubated with monoclonal rat anti-BrdU antibody (1:2,500; Harlan Sera-Lab, Loughborough, United Kingdom) and polyclonal rabbit anti-Olig2 in TBS-plus for 48 h at 4° C. […]
Quantification of BrdU+ cells was accomplished with unbiased counting methods by confocal microscopy. BrdU immunoreaetive nuclei were counted in one focal plane to avoid over-sampling. In corpus callosum, BrdU+ cells were counted in every sixth section (40 μm) from a coronal, series between interaural AP+5.2 mm and AP+3.0 mm in the entire extension of the rostral and medial part of the corpus callosum. Quantitative data are presented as mean percentage normalized to control animals. […]

O-2A/OPCs [2] = assay: Cell death of O-2A/OPCs on exposure; assay type: cell-based, rat
Protocol: To generate sufficient numbers of cells for biochemical analysis, cells, were expanded through one to two passages in PDGF+FGF-2 before replating in the presence of PDGF alone. When cells achieved approximately 50% confluence, MeHg, Pb, or paraquat was added to their medium at concentrations indicated. Doses for the toxicants were chosen on the basis of dose-response curves to identify sub-lethal exposure levels, as a reflection of blood and brain toxicant levels of these compounds and, where applicable, on the basis of previous reports. All toxicant concentrations examined were confirmed to cause death of less than 5% of cells over the time course of the experiment.

cancer cells = assay: Cancer cell viability (MTT assays), FIG. 22; assay type: cell-based; settings: TMX 1-50 μM, 48 hours
MDA-MB-231 cell = MDA-MB-231 cell division by BrdU incorporation; assay type: cell-based; settings: NAC 1 mM or PP1 200 nM with 20 μM tamoxifen, 48 hours
Protocol: It has been reported that c-Cbl induced down-regulation of EGFR is disabled in cancer cells (Hirsch DS, Shen. Y, Wu WJ, (2006) Cancer Res. Apr 1;66(7):3523-30). Thus, growth and motility inhibition of breast cancer cells by EGFR degradation is correlated with inaetivation of Cdc42. […] Cells were cultured in phenol red-free growth media and exposed to TMX (0, 1 μM, 10 μM, 20 μM and 50 μM) for 48 hours, with or without 1 mM NAC. In FIG. 22C. MDA-MB-231 cell division was analyzed by BrdU incorporation analysis. […] Percentage of Brdu+ cells from DAPI+ cells was determined in each sample.

Fyn = assay type: cell-based, rat

SMILES | ubiquitylation of PDGFRα (PDGFRα) | levels of PDGFRα mRNA (PDGFRα mRNA) | reduction in the number of total BrdU+ cells (O-2A/OPCs [1]) | cell death at the concentrations used (O-2A/OPCs [2]; MeHg at lower concentrations (not above 50 nM), 1 μM Pb, 5 μM paraquat) | exposure level associated with significant lethality (O-2A/OPCs [2]; O-2A/OPCs) | effect on TMX effects on cancer cells (cancer cells) | rescue from tamoxifen effect on cell division (MDA-MB-231 cell) | effect on EtOH-induced Fyn phosphorylation (Fyn; co-exposure to NAC) | effect on Aβ-induced increase in phosphorylated Fyn (Fyn; co-exposure with Aβ)
[CH3][Hg][Cl] [MeHg, methylmercury] | enhanced ubiquitylation | did not have any significant effects | 20% | little or no cell death | above 50 nM |  |  |  | 
CC(=O)N[C@@H](CS)C(=O)O [NAC, N-acetyl-L-cysteine] |  |  |  |  |  | not blocked | did not result in any rescue effect | blocked | reversed
